Assay type in all cases: biochemical
For one assay, the target named is T1, PgiCAβ (Porphyromonas gingivalis, UniProt B2RL07).
T1 sequence (B2RL07 19-242): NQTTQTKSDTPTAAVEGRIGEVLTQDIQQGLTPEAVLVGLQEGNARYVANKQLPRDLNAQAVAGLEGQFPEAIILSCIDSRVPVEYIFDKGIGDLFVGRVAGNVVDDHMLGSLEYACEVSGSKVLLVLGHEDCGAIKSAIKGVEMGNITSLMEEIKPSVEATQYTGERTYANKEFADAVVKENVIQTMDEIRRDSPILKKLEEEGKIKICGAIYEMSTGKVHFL
Put plainly: stopped-flow CO2 hydrase assay, PgiCAβ. The following applies: mean from 3 different assays, errors ±5–10%.

The next assay has as its target CpsCAγ (Colwellia psychrerythraea, UniProt Q48AV3). Nature of the assay: biochemical.
Another assay deals with hCA I (Homo sapiens, UniProt P00915). Nature of the assay: stopped-flow CO2 hydrase assay, hCA I. The following applies: mean from 3 different assays, errors ±5–10%.
hCA I, sequence (P00915 whole entry): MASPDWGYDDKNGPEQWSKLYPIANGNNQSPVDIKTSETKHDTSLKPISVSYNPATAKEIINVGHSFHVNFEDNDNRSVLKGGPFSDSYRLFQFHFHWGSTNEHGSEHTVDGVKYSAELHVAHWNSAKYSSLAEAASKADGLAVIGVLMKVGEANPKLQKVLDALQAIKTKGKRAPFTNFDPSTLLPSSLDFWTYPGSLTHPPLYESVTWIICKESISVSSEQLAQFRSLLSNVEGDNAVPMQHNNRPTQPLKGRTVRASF
A further assay deals with T2, PgiCAγ (Porphyromonas gingivalis, UniProt Q7MV79).
T2 sequence (Q7MV79 1-192): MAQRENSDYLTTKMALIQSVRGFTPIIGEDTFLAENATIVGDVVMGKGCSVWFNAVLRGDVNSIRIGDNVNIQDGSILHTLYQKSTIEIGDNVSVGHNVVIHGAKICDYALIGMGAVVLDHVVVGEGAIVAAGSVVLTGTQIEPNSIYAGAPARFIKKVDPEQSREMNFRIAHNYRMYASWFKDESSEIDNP
Put plainly: stopped-flow CO2 hydrase assay, PgiCAγ. The following applies: mean from 3 different assays, errors ±5–10%.

A further assay deals with hCA IX (Homo sapiens, UniProt Q16790). Put plainly: stopped-flow CO2 hydrase assay, hCA IX. Particulars: mean from 3 different assays, errors ±5–10%; read-out: KI hCAIX.
The next assay concerns the target BpsCAγ (Burkholderia pseudomallei, UniProt Q63SQ4). The following applies: read-out: KI BpsCAγ.
In the next assay the target is T3, MgCA (Malassezia globosa, UniProt A8Q1N3).
T3 sequence (A8Q1N3 1-241): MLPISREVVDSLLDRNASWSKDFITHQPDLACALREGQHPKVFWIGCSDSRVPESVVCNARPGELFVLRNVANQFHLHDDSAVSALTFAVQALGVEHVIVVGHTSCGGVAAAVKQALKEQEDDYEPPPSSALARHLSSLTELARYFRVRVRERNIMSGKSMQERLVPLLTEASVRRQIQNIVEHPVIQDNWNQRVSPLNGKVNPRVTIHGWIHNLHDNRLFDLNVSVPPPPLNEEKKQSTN
Nature of the assay: stopped-flow CO2 hydrase assay, MgCA. Particulars: mean from 3 different assays, errors ±5–10%.

For another assay, the target named is hCA II (Homo sapiens, UniProt P00918). Nature of the assay: stopped-flow CO2 hydrase assay, hCA II.
Another assay has as its target T4, SmuCA (Streptococcus mutans, UniProt Q8DVY1).
T4 sequence (Q8DVY1 1-166): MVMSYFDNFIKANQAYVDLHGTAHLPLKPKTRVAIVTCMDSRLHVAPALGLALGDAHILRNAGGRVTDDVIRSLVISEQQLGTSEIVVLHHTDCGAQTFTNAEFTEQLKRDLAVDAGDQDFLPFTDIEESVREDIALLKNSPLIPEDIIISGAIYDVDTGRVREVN
Nature of the assay: stopped-flow CO2 hydrase assay, SmuCA. Particulars: mean from 3 different assays, errors ±5–10%.

The structures appear in SMILES notation.

CpsCAγ, sequence (Q48AV3 entry or part of it): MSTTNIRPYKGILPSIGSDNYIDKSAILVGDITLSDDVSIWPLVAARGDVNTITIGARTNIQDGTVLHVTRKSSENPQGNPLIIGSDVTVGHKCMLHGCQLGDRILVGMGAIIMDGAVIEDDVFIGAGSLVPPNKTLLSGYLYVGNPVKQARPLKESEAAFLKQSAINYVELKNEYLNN
BpsCAγ, sequence (Q63SQ4 1-174): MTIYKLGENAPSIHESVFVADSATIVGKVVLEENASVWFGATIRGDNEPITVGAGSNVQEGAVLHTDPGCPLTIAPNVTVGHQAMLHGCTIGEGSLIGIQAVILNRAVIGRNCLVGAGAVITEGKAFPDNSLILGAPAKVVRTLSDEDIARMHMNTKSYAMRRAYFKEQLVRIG

For orientation: Ki means a dissociation constant, usually derived from enzyme kinetics or from competition with a known ligand. In the case of `CC(=O)c1c(O)c(C)c(O)c2c1OC1=CC(=O)C(=C(C)Nc3ccc(S(N)(=O)=O)cc3O)C(=O)[C@@]12C` [Compound 4a, (R)-4-((1-(6-acetyl-7,9-dihydroxy-8,9b-dimethyl-1,3-dioxo-3,9b-dihydrodibenzo[b,d]furan-2(1H)-ylidene)ethyl)amino)-3-hydroxybenzenesulfonamide], the Ki on PgiCAβ amounted to 0.888 µM; at CpsCAγ, 0.723 µM; at hCA I, 0.37 µM; on PgiCAγ, 0.897 µM; at hCA IX, 0.0669 µM; on BpsCAγ it was 0.473 µM. Moreover, the inhibitory constant (Ki) amounted to 3.43 µM on MgCA; 0.0084 µM on hCA II (mean from 3 different assays, errors ±5–10%); 0.841 µM on SmuCA. The “selectivity index (SI) towards hCA I” value at hCA II (hCA II inhibition relative to hCA I) was determined as 43.9. The “selectivity index (SI) towards hCA IX” value on hCA II (hCA II inhibition relative to hCA IX) came to 7.96.
